According to patent US20040235080A1, “Methods and reagents for detecting endotoxin” (priority 2001, published 2004):

What was measured:
[1] = biological target: T1, recombinant Factor C (rFC) (Carcinoscorpius rotundicauda, UniProt Q26422); experiment: recombinant Factor C (rFC) assay with different detergents and detergent concentrations; type: biochemical; conditions: for Detergent concentration range for rFC inhibition / Detergent concentration range for rFC enhancing: 1 EU/ml EC-6 endotoxin, DPR-coumarin substrate, data after 30 minutes
T1 construct: made in house; host or cells: Culture supernatant, lot 031901I
T1 sequence (Q26422 26-1019): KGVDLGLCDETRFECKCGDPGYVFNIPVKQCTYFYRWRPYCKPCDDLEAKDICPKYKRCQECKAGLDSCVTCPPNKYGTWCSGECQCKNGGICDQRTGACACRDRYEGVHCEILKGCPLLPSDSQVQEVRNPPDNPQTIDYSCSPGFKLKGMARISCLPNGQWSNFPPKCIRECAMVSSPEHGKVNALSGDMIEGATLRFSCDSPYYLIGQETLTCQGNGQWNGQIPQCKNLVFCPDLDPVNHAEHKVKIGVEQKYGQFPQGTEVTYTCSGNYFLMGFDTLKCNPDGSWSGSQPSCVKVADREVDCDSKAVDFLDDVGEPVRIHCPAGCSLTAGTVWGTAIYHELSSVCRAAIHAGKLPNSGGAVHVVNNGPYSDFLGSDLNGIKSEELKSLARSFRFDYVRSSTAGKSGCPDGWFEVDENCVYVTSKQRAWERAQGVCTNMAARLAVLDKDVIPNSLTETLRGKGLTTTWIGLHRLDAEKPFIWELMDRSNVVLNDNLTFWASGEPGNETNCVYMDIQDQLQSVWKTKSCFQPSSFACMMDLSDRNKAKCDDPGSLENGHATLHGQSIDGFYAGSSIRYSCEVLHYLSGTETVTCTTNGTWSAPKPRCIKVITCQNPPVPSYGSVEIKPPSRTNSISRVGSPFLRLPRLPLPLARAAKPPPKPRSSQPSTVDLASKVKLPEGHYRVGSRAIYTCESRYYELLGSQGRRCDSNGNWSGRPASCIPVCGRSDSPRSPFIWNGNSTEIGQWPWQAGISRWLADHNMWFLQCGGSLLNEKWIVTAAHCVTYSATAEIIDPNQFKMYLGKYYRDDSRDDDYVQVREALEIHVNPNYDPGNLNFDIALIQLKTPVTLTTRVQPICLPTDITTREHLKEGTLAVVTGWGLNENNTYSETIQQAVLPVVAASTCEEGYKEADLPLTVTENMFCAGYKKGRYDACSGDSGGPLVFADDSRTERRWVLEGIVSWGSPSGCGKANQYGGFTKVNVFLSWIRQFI
Procedure: The recombinant Factor C (rFC) assay was carried out using 20 μl of each detergent (˜10× of final concentration), 150 μl of 1 EU/ml EC-6, 10 μl of rFC supernatant 031901I, 20 μl of 300 mM Tris, pH 8.0, and 20 μl of 0.55 mM DPR-coumarin substrate. The results of the assay were read at 38° C. using a Cytofluor reader set at 390/440 nm, 5 minutes per cycle, for 1 hour. The data were graphed after 30 minutes.

[2] = biological target: T2, recombinant Carcinoscorpius rotundicauda Factor C (Carcinoscorpius rotundicauda, UniProt Q26422); experiment: endotoxin assay of Examples 1 and 13 (two-step and one-step); type: biochemical; conditions: assay exemplified in Examples 1 and 13
T2 construct: made in house; host or cells: Sf9 insect cells, baculovirus (pFASTBAC1 / bacmid); the secreted protein is used as culture supernatant
T2 sequence (Q26422 26-1019): T1 sequence (Q26422 26-1019)
Procedure: Endotoxin was pre-incubated with culture medium containing recombinant Carcinoscorpius rotundicauda Factor C obtained from recombinant Factor C-producing Sf9 cells for 1 hour in assay buffer (30 mM Tris, pH 8.0, 30 mM NaCl, 0.3% lactose, and 0.0025% Zwittergent 3-14). The substrate N-t-Boc-Asp(Obzl)-Pro-Arg-7-Amido-4-methyl coumarin (DPR-coumarin) was added to the mixture to a final concentration of […]. The fluorescence generated from the cleavage of the substrate by activated Factor C was measured after 15-20 minutes. Results of a similar assay carried out using the substrate N-t-Boc-Val-Pro-Arg-7-Amido-4-methyl coumarin at a final concentration of 100 mM are shown in FIG. 5.
A one-step endotoxin assay can be carried out in a 96-well plate, using 100 μl each of blank and endotoxin standards. […] The plate is incubated at 37° C. for 1 hour. Excitation and emission are read at 390 and 440 nm, respectively, in a fluorescence microplate reader.

Molecule	width of the enhancing concentration range [1]	Detergent concentration range for rFC inhibition [1]	Detergent concentration range for rFC enhancing [1]	optimal concentration of the surfactant [2] [%]
Triton X-100	narrow	>=0.008%	–	–
CCCCCCCCCCCCOS(=O)(=O)[O-].[Na+] [SDS, sodium dodecyl sulfate]	–	>=0.0004%	–	–
CCCCCCCCS[C@@H]1O[C@H](CO)[C@@H](O)[C@H](O)[C@H]1O [OTG, n-Octyl-beta-D-thioglycopyranoside]	narrow	>=0.5%	–	–
CCCCCCCC/C=C\CCCCCCCC(=O)OCCOCC(OCCO)C1OCC(OCCO)C1OCCO (centres unmarked) [Tween 80, polyoxyethylene (20) sorbitan monooleate]	wide	>0.25%	0.001-0.25%	–
CCCCCCCCCCCC(=O)OCCOCCOCCOCCOCCOCCOCCOCCOCCOCCOCCOCCOCCOCCOCCOCCOCCOCCOCCOCCOCC(OCCOCCOCCOCCOCCOCCOCCOCCOCCOCCOCCOCCOCCOCCOCCOCCOCCOCCOCCOCCO)C1OCC(OCCOCCOCCOCCOCCOCCOCCOCCOCCOCCOCCOCCOCCOCCOCCOCCOCCOCCOCCOCCO)C1OCCOCCOCCOCCOCCOCCOCCOCCOCCOCCOCCOCCOCCOCCOCCOCCOCCOCCOCCOCCO (centres unmarked) [Tween 20, polyoxyethylene (20) sorbitan monolaurate]	wide	>0.5%	0.001-0.5%	–
CCCCCCCCCCCCCC[N+](C)(C)CCCS(=O)(=O)[O-] [Zwittergent 3-14, N-tetradecyl-N,N-dimethyl-3-ammonio-1-propanesulfonate]	narrow	>=0.004%	–	0.0025
